Reference: patent publication US20100125087A1, “NEW COMPOUNDS 575” (AstraZeneca AB, priority 2008, published 2010)
Structures can show the parent of a compound that is named as a salt.

Target: T1, human β-Secretase (Homo sapiens, UniProt P56817)
T1 construct: soluble part of the human β-Secretase (AA 1-AA 460); Fc domain of IgG1 (C); made in house
Test: TR-FRET assay
Assay type: biochemical
Settings: sBACE-Fc, substrate (Europium)CEVNLDAEFK(Qsy7) 100 nM, pH4.5, unit not in table
Experimental: The β-secretase enzyme used in the TR-FRET is prepared as follows:
The cDNA for the soluble part of the human β-Secretase (AA 1-AA 460) was cloned using the ASP2-Fc10-1-IRES-GFP-neoK mammalian expression vector. The gene was fused to the Fc domain of IgG1 (affinity tag) and stably cloned into HEK 293 cells.
The enzyme (truncated form) was diluted to 6 μg/mL (stock 1.3 mg/mL) and the substrate (Europium)CEVNLDAEFK(Qsy7) to 200 nM (stock 120 μM) in reaction buffer (NaAcetate, chaps, triton x-100, EDTA pH4.5). The robotic systems Biomek FX and Velocity 11 were used for all liquid handling and the enzyme and substrate solutions were kept on ice until they were placed in the robotic system. Enzyme (9 μl) was added to the plate then 1 μl of compound in dimethylsulphoxide was added, mixed and pre-incubated for 10 minutes. Substrate (10 μl) was then added, mixed and the reaction proceeded for 15 minutes at room temperature. The reaction was stopped with the addition of Stop solution (7 μl, NaAcetate, pH 9). The fluorescence of the product was measured on a Victor II plate reader with an excitation wavelength of 340 nm and an emission wavelength of 615 nm. The assay was performed in a Costar 384 well round bottom, low volume, non-binding surface plate (Corning #3676). […] The dimethylsulphoxide control, instead of test compound, defined the 100% activity level and 0% activity was defined by wells lacking enzyme (replaced with reaction buffer).

T1 sequence (P56817 22-460): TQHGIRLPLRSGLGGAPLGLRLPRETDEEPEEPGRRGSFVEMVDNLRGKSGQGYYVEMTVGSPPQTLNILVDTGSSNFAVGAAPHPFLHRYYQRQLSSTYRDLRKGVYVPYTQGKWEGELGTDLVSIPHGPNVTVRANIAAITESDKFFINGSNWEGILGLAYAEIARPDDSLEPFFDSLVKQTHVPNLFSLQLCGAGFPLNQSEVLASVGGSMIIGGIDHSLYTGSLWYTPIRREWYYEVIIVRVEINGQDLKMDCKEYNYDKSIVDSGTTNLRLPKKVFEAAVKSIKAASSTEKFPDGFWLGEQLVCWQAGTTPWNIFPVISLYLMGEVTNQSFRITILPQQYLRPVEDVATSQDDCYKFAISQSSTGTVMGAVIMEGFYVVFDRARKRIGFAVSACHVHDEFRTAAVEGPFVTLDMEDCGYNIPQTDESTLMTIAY

Compound | IC50 [nM]
CC(C)COc1cccc(C2(c3ccncc3)N=C(N)c3ncccc32)c1 (stereo not drawn) [Example 1, 5-(3-Isobutoxyphenyl)-5-(pyridin-4-yl)-5H-pyrrolo[3,4-b]pyridin-7-amine] | 640
NC1=NC(c2ccncc2)(c2cccc(OCC3CC3(F)F)c2)c2cccnc21 (stereo not drawn) [Example 5, 5-(3-((2,2-Difluorocyclopropyl)methoxy)phenyl)-5-(pyridin-4-yl)-5H-pyrrolo[3,4-b]pyridin-7-amine] | 2300
NC1=NC(c2cccc(OCCCF)c2)(c2ccnc(C(F)(F)F)c2)c2cccnc21 (stereo not drawn) [Example 6, 5-(3-(3-Fluoropropoxy)phenyl)-5-(2-(trifluoromethyl)pyridin-4-yl)-5H-pyrrolo[3,4-b]pyridin-7-amine] | 1500
NC1=NC(c2ccncc2)(c2cccc(OC3CCC3)c2)c2cccnc21 (stereo not drawn) [Example 9, 5-(3-Cyclobutoxyphenyl)-5-(pyridin-4-yl)-5H-pyrrolo[3,4-b]pyridin-7-amine] | 8000
COc1cccc(C2(c3ccncc3)N=C(N)c3ncccc32)c1 (stereo not drawn) [Example 9i, 5-(3-Methoxyphenyl)-5-(pyridin-4-yl)-5H-pyrrolo[3,4-b]pyridin-7-amine] | 26000
COc1c(C)cc(C2(c3cccc(OCCCF)c3)N=C(N)c3ncccc32)cc1C (stereo not drawn) [Example 11, 5-(3-(3-Fluoropropoxy)phenyl)-5-(4-methoxy-3,5-dimethylphenyl)-5H-pyrrolo[3,4-b]pyridin-7-amine] | 81
COc1cc(C2(c3cccc(OCCCF)c3)N=C(N)c3ncccc32)ccn1 (stereo not drawn) [Example 12, 5-(3-(3-Fluoropropoxy)phenyl)-5-(2-methoxypyridin-4-yl)-5H-pyrrolo[3,4-b]pyridin-7-amine] | 2700
Cc1cc(C2(c3cccc(OCCCF)c3)N=C(N)c3ncccc32)ccn1 (stereo not drawn) [Example 13, 5-(3-(3-Fluoropropoxy)phenyl)-5-(2-methylpyridin-4-yl)-5H-pyrrolo[3,4-b]pyridin-7-amine] | 2700
Cc1cc(C2(c3cccc(OCC(C)C)c3)N=C(N)c3ncccc32)cc(C)n1 (stereo not drawn) [Example 15, 5-(2,6-Dimethylpyridin-4-yl)-5-(3-isobutoxyphenyl)-5H-pyrrolo[3,4-b]pyridin-7-amine acetate] | 3800
COc1ncc(C2(c3cccc(OCC(C)C)c3)N=C(N)c3ncccc32)cc1C (stereo not drawn) [Example 16, 5-(3-Isobutoxyphenyl)-5-(6-methoxy-5-methylpyridin-3-yl)-5H-pyrrolo[3,4-b]pyridin-7-amine acetate] | 3100
CC(C)COc1cccc(C2(c3ccc(OC(F)F)nc3)N=C(N)c3ncccc32)c1 (stereo not drawn) [Example 17, acetate] | 1300
CC(C)COc1cccc(C2(c3ccc(OC(F)F)cc3)N=C(N)c3ncccc32)c1 (stereo not drawn) [Example 18, 5-(4-(Difluoromethoxy)phenyl)-5-(3-isobutoxyphenyl)-5H-pyrrolo[3,4-b]pyridin-7-amine] | 150

Further compounds by falling IC50, results first:

IC50 [nM] | Compound
3000 | NC1=NC(c2ccncc2)(c2cccc(OC3CCCC3)c2)c2cccnc21 (stereo not drawn) [Example 8, 5-(3-(Cyclopentyloxy)phenyl)-5-(pyridin-4-yl)-5H-pyrrolo[3,4-b]pyridin-7-amine]
2700 | NC1=NC(c2ccncc2)(c2cccc(OCC3CCC3)c2)c2cccnc21 (stereo not drawn) [Example 4, 5-(3-(Cyclobutylmethoxy)phenyl)-5-(pyridin-4-yl)-5H-pyrrolo[3,4-b]pyridin-7-amine]
2620 | NC1=NC(c2cccc(OCCCF)c2)(c2ccnc(OC(F)F)c2)c2cccnc21 (stereo not drawn) [Example 23, 5-(2-(Difluoromethoxy)pyridin-4-yl)-5-(3-(3-fluoropropoxy)phenyl)-5H-pyrrolo[3,4-b]pyridin-7-amine 1.67 acetic acid]
2400 | NC1=NC(c2ccncc2)(c2cccc(OCCCF)c2)c2cccnc21 (stereo not drawn) [Example 10, 5-(3-(3-Fluoropropoxy)phenyl)-5-(pyridin-4-yl)-5H-pyrrolo[3,4-b]pyridin-7-amine]
1700 | CC(C)CCOc1cccc(C2(c3ccncc3)N=C(N)c3ncccc32)c1 (stereo not drawn) [Example 2, 5-(3-(Isopentyloxy)phenyl)-5-(pyridin-4-yl)-5H-pyrrolo[3,4-b]pyridin-7-amine]
1500 | NC1=NC(c2ccncc2)(c2cccc(OCC3CCCC3)c2)c2cccnc21 (stereo not drawn) [Example 3, 5-(3-(Cyclopentylmethoxy)phenyl)-5-(pyridin-4-yl)-5H-pyrrolo[3,4-b]pyridin-7-amine]
1200 | NC1=NC(c2cccc(OCC3CCC3)c2)(c2ccnc(C(F)(F)F)c2)c2cccnc21 (stereo not drawn) [Example 7, 5-(3-(Cyclobutylmethoxy)phenyl)-5-(2-(trifluoromethyl)pyridin-4-yl)-5H-pyrrolo[3,4-b]pyridin-7-amine]
1150 | NC1=NC(c2cccc(OCCC(F)F)c2)(c2ccnc(C(F)(F)F)c2)c2cccnc21 (stereo not drawn) [Example 21, 5-(3-(3,3-Difluoropropoxy)phenyl)-5-(2-(trifluoromethyl)pyridin-4-yl)-5H-pyrrolo[3,4-b]pyridin-7-amine trifluoroacetic acid salt]
960 | COc1ccc(C2(c3cccc(OCCCF)c3)N=C(N)c3ncccc32)cc1C(F)(F)F (stereo not drawn) [Example 14, 5-(3-(3-Fluoropropoxy)phenyl)-5-(4-methoxy-3-(trifluoromethyl)phenyl)-5H-pyrrolo[3,4-b]pyridin-7-amine]
909 | Cc1cc(C2(c3cccc(OCCCF)c3)N=C(N)c3ncccc32)cc(OC(F)F)n1 (stereo not drawn) [Example 19, 5-(2-(Difluoromethoxy)-6-methylpyridin-4-yl)-5-(3-(3-fluoropropoxy)phenyl)-5H-pyrrolo[3,4-b]pyridin-7-amine]
779 | COc1ccc(C2(c3cccc(OCCCF)c3)N=C(N)c3ncccc32)cc1Cl (stereo not drawn) [Example 20, 5-(3-Chloro-4-methoxyphenyl)-5-(3-(3-fluoropropoxy)phenyl)-5H-pyrrolo[3,4-b]pyridin-7-amine]
337 | COc1c(C)cc(C2(c3cccc(OCCC(F)F)c3)N=C(N)c3ncccc32)nc1C (stereo not drawn) [Example 22, 5-(3-(3,3-Difluoropropoxy)phenyl)-5-(5-methoxy-4,6-dimethylpyridin-2-yl)-5H-pyrrolo[3,4-b]pyridin-7-amine acetic acid salt]
